# Assay results taken from patent publication US20160115186A1, “PHOSPHORIC ACID/PHOSPHONIC ACID DERIVATIVES AND MEDICINAL USES THEREOF” (priority 2013, published 2016).
# Like-named read-outs stand apart in the source and are kept apart here.
# Legend:
# in vitro = assay type: cell-based; conditions: human; Hep G 2.2.15 cells, MTT, day 3 post-dosing
# Procedure: Hep G 2.2.15 cells were inoculated in a 96-well plate (with cell number being 5.5×10^4) to continually cultivate for 3 days, new culture solutions containing different concentrations of drugs were added, and 3 wells were provided in parallel; at day 3 post-dosing, MTT was added until 7.5 mg/ml, and continued to cultivate for 2 hours, the supernate was discarded, isopropanol containing 10% […] was added, 120 μl/well, and 0.4 μl/well was further added.
# HBV = assay: microbe, parasite or virus in culture; assay type: cell-based; conditions: Hepatitis B virus, HepG2.2.15, 240 h; Hep G 2.2.15 cells, HBV DNA in supernate at day 10 post-dosing; read-out: IC50
# Procedure: At day 10 post-dosing, 100 μl supernate was taken and the content of HBV DNA was measured by the method of Quantitative PCR to calculate IC50 value.
# [1] = system: liver damage in mice caused by D-aminogalactose; assay type: in vivo, Kunmin mice; conditions: serum, D-aminogalactose 750 mg/kg model, 0.2 mmol oral twice, 24 hours after second administration
# Procedure: Kunmin mice (20 g) were grouped randomly (8/group). 0.2 mmol of a compound to be tested was orally administered; after 2 hours post-dosing, D-aminogalactose was intraperitoneally injected at a dose of 750 mg/kg to prepare a liver damage model, and the normal saline was subcutaneously injected as a normal control group. After modeling for 12 hours, 0.2 mmol of the compound to be tested was orally administrated again. After 24 hours from the second administration, blood samples were collected to take serum specimen so as to determine ALT, AST.
# [2] = system: liver damage in mice caused by CCl4; assay type: in vivo, Kunmin mice; conditions: serum, CCl4 model, 0.2 mmol oral twice, 24 hours after second administration
# Procedure: Kunmin mice (20 g) were grouped randomly (8/group). 0.2 mmol of a compound to be tested was orally administered; after 1 hour post-dosing, a 0.1% peanut oil solution of CCl4 was subcutaneously injected (10 mL/kg), to prepare a liver damage model; the normal saline was injected as a normal control group. After modeling for 12 hours, 0.2 mmol of the compound to be tested was orally administrated again. After 24 hours from the second administration, blood samples were collected to take serum specimen so as to determine ALT, AST.
# DHBV = assay: animal or person; assay type: in vivo, sheldrakes; conditions: Duck hepatitis B virus, po, 336 h, serum DHBV DNA; for inhibition in vivo at 20 mg/kg: 20 mg/kg intragastric once a day for 14 days; for inhibition in vivo at 10 mg/kg: 10 mg/kg intragastric once a day for 14 days
# Procedure: The sheldrakes infected by vertical transmission and being positive in DHBV DNA detection were grouped randomly, 5/group. Water and different doses of the compound to be tested were intragastrically administrated, respectively, once a day, for 14 days. Venous blood samples were collected pre-dosing, at day 14 of dosing and at day 7 after drug withdrawal, the serum DHBV DNA content was measured using external standard TaqMan real-time fluorescence PCR method, and the inhibition ratio was calculated, as compared to the solvent group.
# [3] = read-out: Inhibition ratio (%) Day 14 of dosing
# [4] = read-out: Inhibition ratio (%) day 7 after drug withdrawal
smiles,measurement,setting,value
CC(C)C[C@@H](NP(=O)(CO[C@H](C)Cn1cnc2c(N)ncnc21)Oc1ccc2c(c1)OCO2)C(=O)OC(C)C (stereo partly drawn) [Compound I23],CC50 at 3 days,in vitro,> 200 µM
CC(C)OC(=O)[C@@H](C)NP(=O)(CO[C@H](C)Cn1cnc2c(N)ncnc21)Oc1ccc2c(c1)OCO2 (stereo partly drawn) [Compound I21],CC50 at 3 days,in vitro,> 200 µM
C=C1[C@H](CO[P@](=O)(N[C@@H](C)C(=O)OC(C)C)Oc2cccc3c2OCO3)[C@@H](O)C[C@@H]1n1cnc2c(=O)[nH]c(N)nc21 [Compound I39-a],IC50,HBV,17 nM
"C=C1[C@H](COP(=O)(N[C@@H](C)C(=O)OC(C)C)Oc2cccc3c2OCO3)[C@@H](O)C[C@@H]1n1cnc2c(=O)[nH]c(N)nc21 (stereo partly drawn) [Compound I39, 9-[(1S,3R,4S)-4-hydroxyl-3-[(((benzo[1,3]dioxolan-4-yl)-oxyl)-1-isopropoxycarbonylethylamino-phosphoryl)-oxymethyl]-2-methylenecyclopentyl]-guanine]",CC50,in vitro,182 µM
COc1nc(N)nc2c1ncn2[C@@H]1O[C@H](COP(=O)(N[C@@H](C)C(=O)OC(C)C)Oc2ccc3c(c2)OCO3)[C@@H](O)[C@@]1(C)F (stereo partly drawn) [Compound I34],CC50,in vitro,> 200 µM
C[C@H](Cn1cnc2c(N)ncnc21)OCP(=O)(N[C@H](C)C(=O)OC1CCCCC1)Oc1ccc2c(c1)OCO2 (stereo partly drawn) [Compound I25],CC50 at 3 days,in vitro,> 200 µM
CC(C)OC(=O)[C@H](C)N[P@](=O)(OC[C@H]1O[C@@H](n2ccc(=O)[nH]c2=O)[C@](C)(F)[C@@H]1O)Oc1ccc2c(c1)OCO2 [Compound I31-b],ALT,[1],375 U/L
same,AST,[1],751 U/L
same,ALT,[2],205 U/L
same,AST,[2],439 U/L
"CC(C)OC(=O)[C@H](C)N[P@](=O)(OC[C@H]1O[C@@H](n2ccc(=O)[nH]c2=O)[C@](C)(F)[C@@H]1O)Oc1ccccc1 [PSI-7977, 5′-[(S)-[[(S)-1-(isopropoxycarbonyl)-ethyl]-amino]-phenoxylphosphoryl]-β-D-2′-deoxy-2′-α-fluoro-2′-β-C-methyluridine, reference compound]",CC50,in vitro,178 µM
same,ALT,[1],1079 U/L
same,AST,[1],1727 U/L
same,ALT,[2],2324 U/L
same,AST,[2],2538 U/L
CC(C)OC(=O)[C@H](C)N[P@](=O)(OC[C@H]1O[C@@H](n2ccc(N)nc2=O)CS1)Oc1ccc2c(c1)OCO2 [Compound I36],CC50,in vitro,> 200 µM
same,ALT,[1],187 U/L
same,AST,[1],113 U/L
same,inhibition in vivo at 20 mg/kg,DHBV; [3],92%
same,inhibition in vivo at 20 mg/kg,DHBV; [4],10.8%
same,ALT,[2],490 U/L
same,AST,[2],543 U/L
"C[C@H](Cn1cnc2c(N)ncnc21)OCP(=O)(Oc1cccc2c1OCO2)Oc1cccc2c1OCO2 [Compound I5, 9-[(R)-2-[[bis-((benzo[1,3]dioxolan-4-yl)-oxyl)-phosphonyl]-methoxyl]-propyl]-adenine]",CC50 at 3 days,in vitro,> 200 µM
COc1nc(N)nc2c1ncn2[C@@H]1O[C@H](CO[P@](=O)(N[C@@H](C)C(=O)OC(C)C)Oc2ccc3c(c2)OCO3)[C@@H](O)[C@@]1(C)F [Compound I34-a],ALT,[1],131 U/L
same,AST,[1],282 U/L
same,ALT,[2],293 U/L
same,AST,[2],763 U/L
CCOC(=O)[C@H](C)N[P@](=O)(OC[C@H]1O[C@@H](n2cnc3c(OC)nc(N)nc32)[C@](C)(F)[C@@H]1O)Oc1ccc2c(c1)OCO2 [Compound I33],CC50,in vitro,> 200 µM
"COC(=O)[C@@H](C)NP(=O)(OCCOCn1cnc2c(=O)[nH]c(N)nc21)Oc1ccccc1 (stereo partly drawn) [i-3, reference compound]",CC50,in vitro,177 µM
same,ALT,[1],1150 U/L
same,AST,[1],1419 U/L
same,inhibition in vivo at 20 mg/kg,DHBV; [3],56.6%
same,inhibition in vivo at 20 mg/kg,DHBV; [4],14.6%
same,ALT,[2],231 U/L
same,AST,[2],446 U/L
"COc1nc(N)nc2c1ncn2[C@@H]1O[C@H](CO[P@@](=O)(N[C@@H](C)C(=O)OC(C)C)Oc2ccccc2)[C@@H](O)[C@@]1(C)F [PSI-353661, reference compound]",CC50,in vitro,149 µM
same,ALT,[1],1558 U/L
same,AST,[1],1027 U/L
same,ALT,[2],1669 U/L
same,AST,[2],2312 U/L
"C=C1[C@H](COP(=O)(Oc2ccc3c(c2)OCO3)Oc2ccc3c(c2)OCO3)[C@@H](O)C[C@@H]1n1cnc2c(OC)nc(N)nc21 [Compound I16, 2-amino-6-methoxyl-9-[(1S,3R,4S)-4-hydroxyl-3-(bis-(((benzo[1,3]dioxolan-5-yl)-oxyl)-phosphoryl)-oxymethyl)-2-methylenecyclopentyl]-purine]",CC50 at 3 days,in vitro,> 200 µM
COc1nc(N)nc2c1ncn2[C@@H]1O[C@H](COP(=O)(N[C@@H](C)C(=O)OC(C)C)Oc2cccc3c2OCO3)[C@@H](O)[C@@]1(C)F (stereo partly drawn) [Compound I40],CC50,in vitro,> 200 µM
"CC(C)Cc1sc(N)nc1-c1ccc(P(=O)(Oc2ccc3c(c2)OCO3)Oc2ccc3c(c2)OCO3)o1 [Compound I10, bis-(benzo[1,3]dioxolan-5-yl) [5-[2-amino-5-(2-methylpropyl)-thiazol-4-yl]-furan-2-yl]-phosphonate]",CC50 at 3 days,in vitro,> 200 µM
"C[C@@]1(F)[C@H](O)[C@@H](COP(=O)(Oc2ccc3c(c2)OCO3)Oc2ccc3c(c2)OCO3)O[C@H]1n1ccc(=O)[nH]c1=O [Compound I17, 5′-O-[bis-((benzo[1,3]dioxolan-5-yl)-oxyl)-phosphoryl]-β-D-2′-deoxy-2′-α-fluoro-2′-β-C-methyl uridine]",CC50 at 3 days,in vitro,> 200 µM
CCOC(=O)[C@@H](C)NP(=O)(CO[C@H](C)Cn1cnc2c(N)ncnc21)Oc1ccc2c(c1)OCO2 (stereo partly drawn) [Compound I20],CC50 at 3 days,in vitro,179 µM
C=C1[C@H](CO[P@@](=O)(N[C@@H](C)C(=O)OC(C)C)Oc2cccc3c2OCO3)[C@@H](O)C[C@@H]1n1cnc2c(=O)[nH]c(N)nc21 [Compound I39-b],IC50,HBV,65 nM
COc1nc(N)nc2c1ncn2[C@@H]1O[C@H](CO[P@@](=O)(N[C@@H](C)C(=O)OC(C)C)Oc2ccc3c(c2)OCO3)[C@@H](O)[C@@]1(C)F [Compound I34-b],ALT,[1],341 U/L
same,AST,[1],194 U/L
same,ALT,[2],289 U/L
same,AST,[2],536 U/L
CC(C)OC(=O)[C@H](C)N[P@@](=O)(OC[C@H]1O[C@@H](n2ccc(=O)[nH]c2=O)[C@](C)(F)[C@@H]1O)Oc1ccc2c(c1)OCO2 [Compound I31-a],ALT,[1],421 U/L
same,AST,[1],253 U/L
same,ALT,[2],507 U/L
same,AST,[2],446 U/L
CC(C)OC(=O)[C@H](C)NP(=O)(OC[C@H]1O[C@@H](n2ccc(=O)[nH]c2=O)[C@](C)(F)[C@@H]1O)Oc1ccc2c(c1)OCO2 (stereo partly drawn) [Compound I31],CC50,in vitro,> 200 µM
CCOC(=O)[C@H](C)N[P@](=O)(OC[C@H]1O[C@@H](n2ccc(=O)[nH]c2=O)[C@](C)(F)[C@@H]1O)Oc1ccc2c(c1)OCO2 [Compound I30],CC50,in vitro,> 200 µM
"COc1ccc(Sc2nc(N)nc3c2ncn3CCOCP(=O)(Oc2cccc3c2OCO3)Oc2cccc3c2OCO3)cc1 [Compound I7, 2-amino-6-(4-methoxylphenyl)thio-9-[[[bis-((benzo[1,3]dioxolan-4-yl)-oxyl)-phosphonyl]-methoxyl]-ethyl]-purine]",CC50 at 3 days,in vitro,> 200 µM
COC(=O)[C@H](C)N[P@](=O)(OC[C@H]1O[C@@H](n2ccc(N)nc2=O)CS1)Oc1ccc2c(c1)OCO2 [Compound I37],CC50,in vitro,193 µM
same,inhibition in vivo at 10 mg/kg,DHBV; [3],75.2%
same,inhibition in vivo at 10 mg/kg,DHBV; [4],9.4%
COc1nc(N)nc2c1ncn2[C@@H]1O[C@H](CO[P@@](=O)(N[C@@H](C)C(=O)OC2CCCCC2)Oc2ccc3c(c2)OCO3)[C@@H](O)[C@@]1(C)F [Compound I35],CC50,in vitro,> 200 µM
"Cc1cc(OCP(=O)(Oc2ccc3c(c2)OCO3)Oc2ccc3c(c2)OCO3)cc(C)c1Cc1ccc(O)c(C(C)C)c1 [Compound I9, bis-(benzo[1,3]dioxolan-5-yl) [(3,5-dimethyl-4-(4′-hydroxyl-3′-isopropylbenzyl)phenoxyl)-methyl]-phosphonate]",CC50 at 3 days,in vitro,> 200 µM
C[C@H](N[P@](=O)(OC[C@H]1O[C@@H](n2ccc(=O)[nH]c2=O)[C@](C)(F)[C@@H]1O)Oc1ccc2c(c1)OCO2)C(=O)OC1CCCCC1 [Compound I32],CC50,in vitro,> 200 µM
